Each structure is given as a SMILES string.

For 15 compounds, Ki results are on record in patent US20230295200A1 (REGENTS OF THE UNIVERSITY OF MICHIGAN, priority 2022, published 2023).

The target of one assay is T1, STAT5A (Homo sapiens, UniProt P42229).
T1 sequence (P42229 1-794): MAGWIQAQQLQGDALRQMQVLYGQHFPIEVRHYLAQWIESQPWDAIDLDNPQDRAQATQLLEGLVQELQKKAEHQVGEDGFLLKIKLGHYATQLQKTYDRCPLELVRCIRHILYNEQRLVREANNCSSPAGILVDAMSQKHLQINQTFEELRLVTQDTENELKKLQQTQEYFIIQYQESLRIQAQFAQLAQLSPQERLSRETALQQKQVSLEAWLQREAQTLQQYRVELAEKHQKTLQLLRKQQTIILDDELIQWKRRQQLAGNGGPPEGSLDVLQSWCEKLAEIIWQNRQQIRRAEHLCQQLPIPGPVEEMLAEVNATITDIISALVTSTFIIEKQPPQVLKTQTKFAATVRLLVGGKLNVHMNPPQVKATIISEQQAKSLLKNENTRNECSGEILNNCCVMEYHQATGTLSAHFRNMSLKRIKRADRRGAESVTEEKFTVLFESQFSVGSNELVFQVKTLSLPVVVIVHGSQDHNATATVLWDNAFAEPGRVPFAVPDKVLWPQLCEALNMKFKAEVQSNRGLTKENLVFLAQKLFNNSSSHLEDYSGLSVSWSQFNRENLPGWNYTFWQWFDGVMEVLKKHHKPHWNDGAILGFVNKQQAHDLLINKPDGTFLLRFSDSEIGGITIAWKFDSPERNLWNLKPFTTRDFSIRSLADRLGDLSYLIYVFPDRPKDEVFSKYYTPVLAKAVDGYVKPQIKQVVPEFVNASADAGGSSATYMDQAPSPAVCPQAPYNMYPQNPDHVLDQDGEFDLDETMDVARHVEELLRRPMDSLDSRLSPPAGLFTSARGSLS
In words: Fluorescence polarization (FP) binding assay, STAT5A. The settings on record: FP competition, 5 nM fluorescein-labeled tracer, 200 nM protein, PBS pH7.4. In a few lines: (§1)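 5 nM fluorescein tracer + 200 nM STAT protein; PBS pH 7.4, 0.01% BGG, 0.01% Tween-20, 2 mM DTT; shake 15 min, 1 h RT equilibrium; FP read; nonlinear fit for inhibition constants.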

The target in another assay is T2, STAT6 protein (Homo sapiens, UniProt P42226).
T2 sequence (P42226 1-847): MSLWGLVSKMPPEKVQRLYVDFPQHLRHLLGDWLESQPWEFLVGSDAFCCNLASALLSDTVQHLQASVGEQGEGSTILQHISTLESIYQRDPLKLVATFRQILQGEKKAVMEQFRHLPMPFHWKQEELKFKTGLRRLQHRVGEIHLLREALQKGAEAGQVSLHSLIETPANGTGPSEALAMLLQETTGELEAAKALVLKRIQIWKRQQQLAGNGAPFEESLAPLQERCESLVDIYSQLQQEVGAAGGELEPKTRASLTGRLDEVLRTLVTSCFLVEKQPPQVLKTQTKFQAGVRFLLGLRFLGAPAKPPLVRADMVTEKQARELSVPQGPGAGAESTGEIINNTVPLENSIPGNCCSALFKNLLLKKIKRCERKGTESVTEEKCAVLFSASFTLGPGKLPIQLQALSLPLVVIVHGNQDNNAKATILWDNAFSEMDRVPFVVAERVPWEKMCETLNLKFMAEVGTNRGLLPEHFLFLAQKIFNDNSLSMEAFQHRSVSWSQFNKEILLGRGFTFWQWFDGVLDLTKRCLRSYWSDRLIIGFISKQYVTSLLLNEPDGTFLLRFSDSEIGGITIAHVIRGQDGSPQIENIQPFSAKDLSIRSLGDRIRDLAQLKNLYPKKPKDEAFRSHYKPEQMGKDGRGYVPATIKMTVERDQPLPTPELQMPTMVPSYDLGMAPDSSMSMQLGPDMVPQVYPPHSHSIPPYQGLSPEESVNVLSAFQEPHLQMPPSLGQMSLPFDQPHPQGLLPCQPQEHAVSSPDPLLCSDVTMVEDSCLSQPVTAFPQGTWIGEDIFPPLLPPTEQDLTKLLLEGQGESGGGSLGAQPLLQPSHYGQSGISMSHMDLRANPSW
In words: Fluorescence polarization (FP) binding assay, STAT6. The settings on record: FP competition, 5 nM fluorescein-labeled tracer, 200 nM protein, PBS pH7.4; read-out: Binding STAT6. The method in brief:
as §1
In general terms: In fluorescence polarisation assays a small probe gives low polarisation when free and higher when bound to something large.

Consider `CC(C)(C)[C@H](NC(=O)c1cc2cc(C(F)(F)P(=O)(O)O)ccc2s1)C(=O)N1CCC[C@H]1C(=O)N(c1ccccc1)c1ccc(I)cc1` [Compound 39, (difluoro(2-(((S)-1-((S)-2-((4-iodophenyl)(phenyl)carbamoyl)pyrrolidin-1-yl)-3,3-dimethyl-1-oxobutan-2-yl)carbamoyl)benzo[b]thiophen-5-yl)methyl)phosphonic acid], for which the Ki was 1000 to 10000 nM on STAT5A and 100 to 1000 nM at STAT6 protein.

On to `CC(C)(C)[C@H](NC(=O)c1cc2cc(C(F)(F)P(=O)(O)O)ccc2[nH]1)C(=O)N1CCC[C@H]1C(=O)N(c1ccc(Cl)cc1)C1CCCCC1` [Compound 40, ((2-(((S)-1-((S)-2-((4-chlorophenyl)(cyclohexyl)carbamoyl)pyrrolidin-1-yl)-3,3-dimethyl-1-oxobutan-2-yl)carbamoyl)-1H-indol-5-yl)difluoromethyl)phosphonic acid], for which the Ki was in the range of 1000 to 10000 nM at STAT5A and 100 to 1000 nM at STAT6 protein.

`CNC(=O)c1ccc(N(C(=O)[C@@H]2CCCN2C(=O)[C@@H](NC(=O)c2cc3cc(C(F)(F)P(=O)(O)O)ccc3s2)C(C)(C)C)c2ccc(I)cc2)cc1` [Compound 42, (difluoro(2-(((S)-1-((S)-2-((4-iodophenyl)(4-(methylcarbamoyl)phenyl)carbamoyl)pyrrolidin-1-yl)-3,3-dimethyl-1-oxobutan-2-yl)carbamoyl)benzo[b]thiophen-5-yl)methyl)phosphonic acid]: the Ki was 1000 to 10000 nM at STAT5A and 100 to 1000 nM at STAT6 protein.

Turning to `COC(=O)CCN(C(=O)[C@@H]1CCCN1C(=O)[C@@H](NC(=O)c1cc2cc(C(F)(F)P(=O)(O)O)ccc2s1)C(C)(C)C)c1ccc(Br)cc1` [Compound 43], the Ki at STAT5A and on STAT6 protein was 100 to 1000 nM in each case.

Take `CNC(=O)c1ccc(N(C(=O)[C@@H]2CCCN2C(=O)[C@@H](NC(=O)c2cc3cc(C(F)(F)P(=O)(O)O)ccc3s2)C(C)(C)C)c2ccc(Cl)cc2)cc1` [Compound 44, ((2-(((S)-1-((S)-2-((4-chlorophenyl)(4-(methylcarbamoyl)phenyl)carbamoyl)pyrrolidin-1-yl)-3,3-dimethyl-1-oxobutan-2-yl)carbamoyl)benzo[b]thiophen-5-yl)difluoromethyl)phosphonic acid]: the Ki at STAT5A lay in the range of 1000 to 10000 nM; on STAT6 protein, 100 to 1000 nM.

Regarding `CNC(=O)CCN(C(=O)[C@@H]1CCCN1C(=O)[C@@H](NC(=O)c1cc2cc(C(F)(F)P(=O)(O)O)ccc2s1)C(C)(C)C)c1ccc(Br)cc1` [Compound 45, ((2-(((S)-1-((S)-2-((4-bromophenyl)(3-(methylamino)-3-oxopropyl)carbamoyl)pyrrolidin-1-yl)-3,3-dimethyl-1-oxobutan-2-yl)carbamoyl)benzo[b]thiophen-5-yl)difluoromethyl)phosphonic acid], the Ki on STAT5A lay in the range of 1000 to 10000 nM; at STAT6 protein, 100 to 1000 nM.

On to `CC(C)(C)[C@H](NC(=O)c1cc2cc(C(F)(F)P(=O)(O)O)ccc2s1)C(=O)N1CCC[C@H]1C(=O)N(CCC(=O)O)c1ccc(Br)cc1` [Compound 46, 3-((S)-N-(4-bromophenyl)-1-((S)-2-(5-(difluoro(phosphono)methyl)benzo[b]thiophene-2-carboxamido)-3,3-dimethylbutanoyl)pyrrolidine-2-carboxamido)propanoic acid], for which the Ki at STAT5A and on STAT6 protein was 100 to 1000 nM in each case.

Regarding `CC(C)(C)[C@H](NC(=O)c1cc2cc(C(F)(F)P(=O)(O)O)ccc2s1)C(=O)N1CCC[C@H]1C(=O)N1CCCC12CCCC2` [Compound 58, ((2-(((S)-1-((S)-2-(1-azaspiro[4.4]nonane-1-carbonyl)pyrrolidin-1-yl)-3,3-dimethyl-1-oxobutan-2-yl)carbamoyl)benzo[b]thiophen-5-yl)difluoromethyl)phosphonic acid], the Ki on STAT5A was above 10000 nM; at STAT6 protein, 1000 to 10000 nM.

Consider `CC(C)(C)[C@H](NC(=O)c1cc2cc(C(F)(F)P(=O)(O)O)ccc2s1)C(=O)N1CCC[C@H]1C(=O)N1CCC2(CCCC2)C1` [Compound 59, ((2-(((S)-1-((S)-2-(2-azaspiro[4.4]nonane-2-carbonyl)pyrrolidin-1-yl)-3,3-dimethyl-1-oxobutan-2-yl)carbamoyl)benzo[b]thiophen-5-yl)difluoromethyl)phosphonic acid], for which the results for the Ki at STAT5A and on STAT6 protein were above 10000 nM and 1000 to 10000 nM, respectively.

Regarding `CC(C)(C)[C@H](NC(=O)c1cc2cc(C(F)(F)P(=O)(O)O)ccc2s1)C(=O)N1CCC[C@H]1C(=O)N1CCCC12CCCCC2` [Compound 60, ((2-(((S)-1-((S)-2-(1-azaspiro[4.5]decane-1-carbonyl)pyrrolidin-1-yl)-3,3-dimethyl-1-oxobutan-2-yl)carbamoyl)benzo[b]thiophen-5-yl)difluoromethyl)phosphonic acid], the Ki at STAT5A is above 10000 nM; at STAT6 protein, 1000 to 10000 nM.

Take `CC(C)(C)[C@H](NC(=O)c1cc2cc(C(F)(F)P(=O)(O)O)ccc2s1)C(=O)N1CCC[C@H]1C(=O)N1CCC2(CCCCC2)C1` [Compound 61, ((2-(((S)-1-((S)-2-(2-azaspiro[4.5]decane-2-carbonyl)pyrrolidin-1-yl)-3,3-dimethyl-1-oxobutan-2-yl)carbamoyl)benzo[b]thiophen-5-yl)difluoromethyl)phosphonic acid]: the Ki on STAT5A was above 10000 nM; on STAT6 protein, 1000 to 10000 nM.

Regarding `CC(C)(C)[C@H](NC(=O)c1cc2cc(C(F)(F)P(=O)(O)O)ccc2s1)C(=O)N1CCC[C@H]1C(=O)N1CCC2(CCCCCC2)C1` [Compound 62, ((2-(((S)-1-((S)-2-(2-azaspiro[4.6]undecane-2-carbonyl)pyrrolidin-1-yl)-3,3-dimethyl-1-oxobutan-2-yl)carbamoyl)benzo[b]thiophen-5-yl)difluoromethyl)phosphonic acid], the Ki on STAT5A is above 10000 nM; on STAT6 protein it was 1000 to 10000 nM.

On to `CC(C)(C)[C@H](NC(=O)c1cc2cc(C(F)(F)P(=O)(O)O)ccc2s1)C(=O)N1CCC[C@H]1C(=O)N1CCc2ccc(Cl)cc2C1` [Compound 68, ((2-(((S)-1-((S)-2-(7-chloro-1,2,3,4-tetrahydroisoquinoline-2-carbonyl)pyrrolidin-1-yl)-3,3-dimethyl-1-oxobutan-2-yl)carbamoyl)benzo[b]thiophen-5-yl)difluoromethyl)phosphonic acid], for which the values for the Ki at STAT5A and at STAT6 protein were above 10000 nM and 1000 to 10000 nM, respectively.

Consider `CC(C)(C)[C@H](NC(=O)c1cc2cc(C(F)(F)P(=O)(O)O)ccc2s1)C(=O)N1CCC[C@H]1C(=O)NC1(c2ccccc2)CC1` [Compound 71, ((2-(((S)-3,3-dimethyl-1-oxo-1-((S)-2-((1-phenylcyclopropyl)carbamoyl)pyrrolidin-1-yl)butan-2-yl)carbamoyl)benzo[b]thiophen-5-yl)difluoromethyl)phosphonic acid], for which the Ki is above 10000 nM at STAT5A and 1000 to 10000 nM at STAT6 protein.

On to `CN(Cc1ccc(Cl)cc1)C(=O)[C@@H]1CCCN1C(=O)[C@@H](NC(=O)c1cc2cc(C(F)(F)P(=O)(O)O)ccc2s1)C(C)(C)C` [Compound 73, ((2-(((S)-1-((S)-2-((4-chlorobenzyl)(methyl)carbamoyl)pyrrolidin-1-yl)-3,3-dimethyl-1-oxobutan-2-yl)carbamoyl)benzo[b]thiophen-5-yl)difluoromethyl)phosphonic acid], for which the figures for the Ki at STAT5A and on STAT6 protein were above 10000 nM and 1000 to 10000 nM, respectively.
